Laboratory results from patent US10947542B2, “Nucleic acid simultaneously inhibiting expression of AR gene and mTOR gene” (CURIGIN CO., LTD., priority 2017, dated 2021).

What was measured:
DU145 cell line = experiment: Cancer cell death by double target siRNA and anticancer agent, MTT cell viability; type: cell-based
Description: (§1) After incubating the DU145 cell line and the H460 cell line in 6-well plates respectively, we transfected the double target siRNA set 1 (si-AT1) according to the present disclosure thereto. Then, as 48 hours lapsed, the cells were treated with cisplatin 50 uM, etoposide 20 uM or Taxol 1 uM and were incubated for 16 hours. Thereafter, the cells were treated with 5 mg/mL MTT (Promega, Ltd.) and incubated for 4 hours, and then the medium was removed. The cells were treated with 150 μl of solubilization solution and stop solution and then were incubated at 37° C. for 4 hours. Absorbance of the reaction solution was measured at 570 nm and cell viability was calculated using the following equation. Cell viability=(Absorbance of experiment group at 570 nm/Absorbance of control at […])×100(%) [Equation 1]

H460 cell line = experiment: as above; type: cell-based
Description: as §1

AR gene = AR gene expression inhibition by siRNA transfection, RT-PCR/qPCR of mRNA (PC3 and h460 cell lines); type: cell-based, human; conditions: 80 pmole siRNA per well, 48 hours after transfection, normalized to GAPDH
Description: (§2) We dispensed PC3 and h460 cell lines into 12-well plates, and incubated the same at 37° C. and 5% CO2 condition in RPMI medium (Hyclone company) with 10% FBS (Hyclone company) until a cell confluent reaches 50%. Thereafter, 3 μl of lipofectamine 3000 (Invitrogen, Carlsbad, Calif., USA) was used to transfect the double target siRNA set 1 prepared in the Example 1 (si-AT 1) to the wells in which the cells were cultured at 80 pmole per well. Thus, AR and mTOR were knocked down simultaneously. In addition, siRNA to AR and siRNA to mTOR were transfected respectively, as listed in the following table 3, as a positive control. At 48 hours after the transfection, cells were crushed, and total RNA was extracted using GeneJET RNA Purification Kit (Invitrogen). While using the extracted total RNA as a template, the same was subjected to reverse transcription into cDNA via RT-PCR reaction. Then, mRNA expression levels of AR and mTOR by each siRNA and by the double target siRNA set 1 (si-AT1) according to the present disclosure was identified via q-PCR reaction. To identify the mRNA expression levels, the mRNA of AR and mTOR in the cell lysates knocked down by PCR conditions of Table 6 was converted to cDNA using the primer set from Table 4 and the reaction mixture from Table 5. […]

mTOR gene = mTOR gene expression inhibition by siRNA transfection, RT-PCR/qPCR of mRNA (PC3 and h460 cell lines); type: cell-based, human; conditions: 80 pmole siRNA per well, 48 hours after transfection, normalized to GAPDH
Description: as §2

[1] = anticancer agent without double target siRNA, cisplatin 50 uM, etoposide 20 uM or Taxol 1 uM, 16 hours
[2] = siRNA transfected, after 48 hours Taxol 1 uM for 16 hours
[3] = siRNA transfected, after 48 hours etoposide 20 uM for 16 hours

N.N.[Cl][Pt][Cl] [cisplatin, reference compound]
cancer cell death (cell viability, MTT) (DU145 cell line; [1]): apoptosis effect was not achieved

COc1cc([C@@H]2c3cc4c(cc3[C@@H](O[C@@H]3O[C@@H]5CO[C@@H](C)O[C@H]5[C@H](O)[C@H]3O)[C@H]3COC(=O)[C@H]23)OCO4)cc(OC)c1O [etoposide, reference compound]
cancer cell death (cell viability, MTT) (DU145 cell line; [1]): a little anticancer activity

CC(=O)O[C@H]1C(=O)[C@@]2(C)[C@H]([C@H](OC(=O)c3ccccc3)[C@]3(O)C[C@H](OC(=O)[C@H](O)[C@@H](NC(=O)c4ccccc4)c4ccccc4)C(C)=C1C3(C)C)[C@]1(OC(C)=O)CO[C@@H]1C[C@@H]2O [taxol, reference compound]
cancer cell death (cell viability, MTT) (DU145 cell line; [1]): a little anticancer activity

si-AT1: AR and mTOR double target double strand siRNA, 20mer, SEQ ID NOs: 1 and 2 (chain 1 GCUGCUGCUGCUGCCUGGGG; chain 2 CCCCAUGCAGCUGCAGCAGC; listed as RNA, chemistry not given here)
cancer cell death (cell viability, MTT) (H460 cell line; siRNA alone): showed apoptosis effect | cancer cell death (cell viability, MTT) (H460 cell line; [2]): significant anticancer activity | cancer cell death (cell viability, MTT) (H460 cell line; [3]): significant anticancer activity | cancer cell death (cell viability, MTT) (DU145 cell line; siRNA alone ("no treat", no anticancer agent)): caused apoptosis | cancer cell death (cell viability, MTT) (DU145 cell line; [2]): significant improvement in the DU145 cell death | cancer cell death (cell viability, MTT) (DU145 cell line; siRNA transfected, after 48 hours cisplatin 50 uM for 16 hours): induced the apoptosis | cancer cell death (cell viability, MTT) (DU145 cell line; [3]): significant improvement in the DU145 cell death | mRNA expression level of AR (AR gene; PC3 cells): reduced | mRNA expression level of AR (AR gene; h460 cell line): reduced | mRNA expression level of mTOR (mTOR gene; PC3 cells): reduced | mRNA expression level of mTOR (mTOR gene; h460 cell line): reduced
